Source: US7320785B2, “Compositions and methods for modulation of DARPP-32 phosphorylation” (The Rockefeller University, priority 2001, dated 2008)
Where two headings read alike, the source gives them in different places. Marks after values point to notes of the source that are not given here.

Experiments:
DARPP-32 [1] = assay: DARPP-32 phosphorylation in mouse brain slices, immunoblotting with phosphorylation state-specific antibodies; conditions: for phospho-Thr34 DARPP-32 / phospho-Thr75 DARPP-32: prefrontal cortex slices, n=6; for phospho-Thr34 DARPP-32: 2 min of incubation; for phospho-Thr75 DARPP-32: 10 min of incubation
DARPP-32 [2] = conditions: cited from earlier work
[3] = pNPP hydrolysis by recombinant PP2C isoforms (phosphatase assay); type: biochemical, rat; conditions: for Vmax of pNPP hydrolysis, Mn^2+ compared to Mg^2+ (higher): 20 mM Mn^2+ versus 20 mM Mg^2+; for Vmax / kcat / Km: pNPP as substrate; for Km: 37° C.
Experimental: The activity of PP2C isoforms using pNPP as substrate was assayed as previously described (Brumel et al., 1997). […] The reaction was stopped by addition of 1 ml of 0.1 M NaOH, and the initial rate of p-nitrophenol release was determined spectrophotometrically at 405 nm (using a molar extinction coefficient of 18 000 M−1 cm−1).
(§1) Kinetic parameters (Km and Vmax) were determined from Lineweaver-Burk plots.
Legend Table 7. Enzymatic activities of PP2C isoforms assayed using pNPP as substrate. Phosphatase activity was measured using pNPP as substrate by the change in absorbance at 405 nm. Km and Vmax values were calculated from Lineweaver-Burk plots of the data.

phospho-Ser137-DARPP-32 = assay: Dephosphorylation of phospho-Ser137-DARPP-32 by recombinant PP2C isoforms; type: biochemical, rat; conditions: [^32P]phospho-Ser137 DARPP-32 as substrate; in the presence of 10 mM Mn^2+
Experimental: The activity of PP2C isoforms using ^32P-DARPP (phosphorylated at Ser137) was assayed at 37° C. in a reaction mixture containing 25 mM Tris-HCl, pH 7.5, 10 mM MnCl2, 1% BSA, and […] substrate, in a total volume of […]. Reactions were stopped by addition of […] of 50% trichloroacetic acid. Samples were then incubated on ice for 30 min and centrifuged at 10,000 g for 10 min at 4° C. Radioactivity recovered in the supernatant was measured by Cerenkov counting in a scintillation counter (Beckman).
as §1
Legend Table 8. Enzymatic activities of PP2C isoforms assayed using [^32P]phospho-Ser137 DARPP-32 as substrate. Phosphatase activity was measured by the release of ^32P, and Km and Vmax values were calculated from Lineweaver-Burk plots of the data.

[4] = neostriatal slices, compound at 100 μM, 2 min incubation, vehicle control = 100
[5] = neostriatal slices, compound at 100 μM, 10 min incubation, vehicle control = 100
[6] = Mus musculus, 2 min, read-out: Percent Phospho-Thr34
[7] = Mus musculus, 10 min, read-out: Percent Phospho-Thr75
[8] = Mus musculus, 2 min, read-out: Percent Phospho-Ser137
[9] = neostriatal slices, compound at 10 μM, 2 min incubation
[10] = neostriatal slices, compound at 10 μM, 10 min incubation
[11] = neostriatal slices, compound at 300 μM, 2 min incubation

NC1=N[C@H](O)[C@H]2[C@H]3O[C@]4(O)O[C@@H]([C@@H](O)[C@@]2(N1)[C@@H]4O)[C@]3(O)CO [Tetrodotoxin]
Percent Phospho-Ser137 (DARPP-32 [1]): 98(12.5) Percent | Percent Phospho-Thr34 (DARPP-32 [1]): 91.8(5.8) Percent | Percent Phospho-Thr75 (DARPP-32 [1]): 103(3.5) Percent

COc1cc(CC(C)N)c(OC)cc1I.Cl (racemic) [DOI, (±)-2,5-dimethoxy-4-iodoamphetamine hydrochloride; (±)-1-(2,5 dimethoxy-4-iodophenyl)-2-aminopropane]
Percent Phospho-Ser137 (DARPP-32 [1]; [4]): 158(8.3)* Percent | Percent Phospho-Thr34 (DARPP-32 [1]; [4]): 144(16.7) Percent | Percent Phospho-Thr75 (DARPP-32 [1]; [5]): 105(4.5) Percent | EC50 (DARPP-32 [1]; read-out: EC50 at phospho-Ser137 DARPP-32, neostriatal slices): 18.2 µM

COc1ccc2[nH]cc(CCN)c2c1 [5-MT, 5-methoxytryptamine]
activity at 100 µM (DARPP-32 [1]; [6]): 261 ± 31% | activity at 100 µM (DARPP-32 [1]; [7]): 76 ± 7% | Percent Phospho-Thr34 (DARPP-32 [1]; [4]): 261(31.5)* Percent | Percent Phospho-Thr75 (DARPP-32 [1]; [5]): 76(7.6)* Percent

NC1CCN(c2cccc(Cl)n2)CC1 [SR 57227]
Percent Phospho-Ser137 (DARPP-32 [1]; [4]): 105(9.6) Percent | Percent Phospho-Thr34 (DARPP-32 [1]; [4]): 78(3.5)* Percent | Percent Phospho-Thr75 (DARPP-32 [1]; [5]): 88(4.8) Percent

c1ccc2sc(N3CCN(Cc4ccc5c(c4)OCO5)CC3)nc2c1 [PPB, 2-[1-(4-Piperonyl)piperazinyl]benzothiazole]
Percent Phospho-Ser137 (DARPP-32 [1]; [4]): 108(2.0) Percent | Percent Phospho-Thr34 (DARPP-32 [1]; [4]): 218(36.1)* Percent | Percent Phospho-Thr75 (DARPP-32 [1]; [5]): 72(8.8)* Percent | phospho-Thr34 DARPP-32 (DARPP-32 [1]): 203±15% | phospho-Thr75 DARPP-32 (DARPP-32 [1]): 84±4%

CCN1CCC[C@H]1CNC(=O)c1c(O)c(Cl)cc(Cl)c1OC [Raclopride]
activity at 10 µM (DARPP-32 [1]; [8]): 101% | activity at 10 µM (DARPP-32 [1]; [6]): 150% | activity at 10 µM (DARPP-32 [1]; [7]): 85%

CN1CCN(C2=Nc3cc(Cl)ccc3Nc3ccccc32)CC1 [Clozapine]
activity at 10 µM (DARPP-32 [1]; [8]): 105% | activity at 10 µM (DARPP-32 [1]; [6]): 124% | activity at 10 µM (DARPP-32 [1]; [7]): 101%

O=C(c1ccc(F)cc1)C1CCN(CCn2c(=O)[nH]c3ccccc3c2=O)CC1 [Ketanserin]
activity at 10 µM (DARPP-32 [1]; [8]): 97% | activity at 10 µM (DARPP-32 [1]; [6]): 94% | activity at 10 µM (DARPP-32 [1]; [7]): 105%

CN1CC[C@]23c4c5ccc(O)c4O[C@H]2[C@@H](O)C=C[C@H]3[C@H]1C5 [morphine]
frontal cortex levels of DARPP-32 immunoreactivity (DARPP-32 [2]; rat, in vivo): without effects

CCN(CC)CCOC(=O)c1cc(Cl)c(N)cc1OC [SDZ205,557]
Percent Phospho-Ser137 (DARPP-32 [1]; [9]): 102(8.8) Percent | Percent Phospho-Thr34 (DARPP-32 [1]; [9]): 94(16.7) Percent | Percent Phospho-Thr75 (DARPP-32 [1]; [10]): 103(17.5) Percent

C=CCN1CCc2c(cc(O)c(O)c2Cl)C(c2ccccc2)C1 (centres unmarked) [SKF 82958]
activity at 10 µM (DARPP-32 [1]; [8]): 115% | activity at 10 µM (DARPP-32 [1]; [6]): 552% | activity at 10 µM (DARPP-32 [1]; [7]): 65%

O=C(CCCN1CCC(O)(c2ccc(Cl)cc2)CC1)c1ccc(F)cc1 [haloperidol]
frontal cortex levels of DARPP-32 immunoreactivity (DARPP-32 [2]; chronic administration in rats): without effects

Clc1cccc(SC2CCNCC2)n1 [Anpirtoline]
activity at 100 µM (DARPP-32 [1]; [8]): 93% | activity at 100 µM (DARPP-32 [1]; [6]): 86% | activity at 100 µM (DARPP-32 [1]; [7]): 102%

NCCNS(=O)(=O)c1ccc(Cl)c2ccncc12 [CK1-7]
Percent Phospho-Ser137 (DARPP-32 [1]; [4]): 87(4.0)* Percent | Percent Phospho-Thr34 (DARPP-32 [1]; [4]): 102(11.5) Percent | Percent Phospho-Thr75 (DARPP-32 [1]; [5]): 96(10.0) Percent

CN(C)CCCN1c2ccccc2CCc2ccccc21 [imipramine]
frontal cortex levels of DARPP-32 immunoreactivity (DARPP-32 [2]; chronic administration in rats): significant increases

CCc1[nH]c2ccc(OC)cc2c1CCN(C)C [EMDT, 2-ethyl-5-methoxy-N,N-dimethyltryptamine]
EC50 (DARPP-32 [1]; Mus musculus, 2 min, read-out: EC50 for effect on DARPP-32 phosphorylation at Thr34): 20.5 µM | EC50 (DARPP-32 [1]; Mus musculus, 10 min, read-out: EC50 for effect on DARPP-32 phosphorylation at Thr75): 27.4 µM | phospho-Thr34 DARPP-32 (DARPP-32 [1]): 185±19% | phospho-Thr75 DARPP-32 (DARPP-32 [1]): 80±17%

CN1CCc2cc(Cl)c(O)cc2[C@@H](c2ccccc2)C1 [SCH23390]
activity at 10 µM (DARPP-32 [1]; [6]): 76% | activity at 10 µM (DARPP-32 [1]; [7]): 109%

Nc1ncnc2c1ncn2[C@@H]1O[C@@H]2CO[P@@](O)(=S)O[C@H]2[C@H]1O [RpcAMPs]
Percent Phospho-Ser137 (DARPP-32 [1]; [11]): 108(10.0) Percent | Percent Phospho-Thr34 (DARPP-32 [1]; [11]): 88(13.1) Percent | Percent Phospho-Thr75 (DARPP-32 [1]; neostriatal slices, compound at 300 μM, 10 min incubation): 105(7.2) Percent

CNc1cc(NS(=O)(=O)c2ccc(N)cc2)nc(NC)n1 [Ro 07-6790]
Percent Phospho-Ser137 (DARPP-32 [1]; [9]): 105(7.3) Percent | Percent Phospho-Thr34 (DARPP-32 [1]; [9]): 90(8.7) Percent | Percent Phospho-Thr75 (DARPP-32 [1]; [10]): 101(12.5) Percent

N[C@@H]1C[C@H]1c1ccccc1 (racemic) [tranylcypromine]
frontal cortex levels of DARPP-32 immunoreactivity (DARPP-32 [2]; rat, in vivo): significant increases

COc1ccc2c(c1)CC[C@@H]1[C@@H]2CC[C@]2(C)[C@@H](NCCCCCCN3C(=O)C=CC3=O)CC[C@@H]12 [U-73122]
Percent Phospho-Ser137 (DARPP-32 [1]; [9]): 86(6.2)* Percent | Percent Phospho-Thr34 (DARPP-32 [1]; [9]): 117(10.9) Percent | Percent Phospho-Thr75 (DARPP-32 [1]; [10]): 90(6.6) Percent

B1: PP2Cg: recombinant his-tagged gamma isoform of protein phosphatase 2C cloned from rat striatum (protein)
chain: MGAYLSQPNTVKCSGDGVGAPRLPLPYGFSAMQGWRVSMEDAHNCIPELDNETAMFSVYDGHGGEEVALYCAKYLPDIIKDQKAYKEGKLQKALQDAFLAIDAKLTTDEVIKELAQIAGRPTEDEDDKEKVADEDDVDNEEAALLHEEATMTIEELLTRYGQNCQKGPPHTKSGTGIGDEPEPQGLNGEAGPEDPSRETPSQENGPTAKGHTGPSSNSDHGTEAGQIGEPGTATGEAGPSCSSASDKLPRVAKSKFFEDSEDESDEVEEEEDDSEECSEDEDGYSSEEAENEEDEDDTEEAEEDDDEEMMVPGMEGKEEPGSDSGTTAVVALIRGKQLIVANAGDSRCVVSEAGKALDMSYDHKPEDEVELARIKNAGGKVTMDGRVNGGLNLSRAIGDHFYKRNKNLPPQEQMISALPDIKVLTLTDDHEFMVIACDGIWNVMSSQEVVDFIQSKISQRDENGELRLLSSIVEELLDQCLAPDTSGDGTGCDNMTCIIICFKPRNTVELQPESGKRKLEEALSTEGAEENGNSDKKKAKRD
modifications: left off: small tags and cut ends
notes: recombinant his-tagged gamma isoform of protein phosphatase 2C cloned from rat striatum
Vmax of pNPP hydrolysis, Mn^2+ compared to Mg^2+ (higher) [3]: 15 fold | Km of pNPP hydrolysis, Mn^2+ compared to Mg^2+ (lower) ([3]; Mn^2+ substitutes Mg^2+): 24 fold | Vmax ([3]; in the presence of 20 mM Mg^2+): 0.09 µmol/mg/min | kcat ([3]; in the presence of 20 mM Mg^2+): 0.094 s⁻¹ | Km ([3]; in the presence of 20 mM Mg^2+): 12800 µM | Vmax ([3]; in the presence of 20 mM Mn^2+): 1.29 µmol/mg/min | kcat ([3]; in the presence of 20 mM Mn^2+): 1.35 s⁻¹ | Km ([3]; in the presence of 20 mM Mn^2+): 520 µM | Km (phospho-Ser137-DARPP-32): 7 µM | Vmax (phospho-Ser137-DARPP-32): 0.31 µmol/mg/min | kcat (phospho-Ser137-DARPP-32): 0.32 s⁻¹

B2: PP2Cb: recombinant his-tagged beta isoform of protein phosphatase 2C cloned from rat striatum (protein, UniProt P35815 2-390, looked up)
Protein phosphatase 1B: GAFLDKPKTEKHNAHGAGNGLRYGLSSMQGWRVEMEDAHTAVVGIPHGLEDWSFFAVYDGHAGSRVANYCSTHLLEHITTNEDFRAADKSGFALEPSVENVKTGIRTGFLKIDEYMRNFSDLRNGMDRSGSTAVGVMISPTHIYFINCGDSRAVLCRNGQVCFSTQDHKPCNPMEKERIQNAGGSVMIQRVNGSLAVSRALGDYDYKCVDGKGPTEQLVSPEPEVYEILRAEEDEFVVLACDGIWDVMSNEELCEFVNSRLEVSDDLENVCNWVVDTCLHKGSRDNMSIVLVCFANAPKVSDEAVKRDLELDKHLESRVEEIMQKSGEEGMPDLAHVMRILSAENIPNLPPGGGLAGKRNVIEAVYSRLNPNKDNDGGAGDLEDSLVAL
modifications: His tag
notes: recombinant his-tagged beta isoform of protein phosphatase 2C cloned from rat striatum
Vmax of pNPP hydrolysis, Mn^2+ compared to Mg^2+ (higher) [3]: approximately 50 fold | Vmax ([3]; in the presence of 20 mM Mg^2+): 0.20 µmol/mg/min | kcat ([3]; in the presence of 20 mM Mg^2+): 0.16 s⁻¹ | Km ([3]; in the presence of 20 mM Mg^2+): 3200 µM | Vmax ([3]; in the presence of 20 mM Mn^2+): 10.72 µmol/mg/min | kcat ([3]; in the presence of 20 mM Mn^2+): 8.42 s⁻¹ | Km ([3]; in the presence of 20 mM Mn^2+): 2290 µM | Km (phospho-Ser137-DARPP-32): 25.3 µM | Vmax (phospho-Ser137-DARPP-32): 0.99 µmol/mg/min | kcat (phospho-Ser137-DARPP-32): 0.78 s⁻¹
